Measured values reported in patent US11384099B2, “Pyrazolopyridinone compounds” (Janssen Pharmaceutica NV, priority 2017, dated 2022).

Experiments:
[1] = target: T1, human FGFR3 wild type enzyme (cytoplasmic domain) (Homo sapiens, UniProt P22607); assay: FGFR3 wild type mobility shift assay (enzymatic assay, Caliper); type: biochemical; conditions: 75 μM ATP, 50 minutes at 30° C.
T1 construct: human FGFR3 wild type enzyme (cytoplasmic domain, from Cama Biosciences); purchased Carna Biosciences
Summary of the method: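 Cytoplasmic-domain FGFR3 (0.04 ng/μL) reacted with 75 μM ATP and 1 μM FL-peptide 30 in HEPES pH 7.4/MgCl2/Brij35/DTT buffer, 1% DMSO final. Incubation 50 min at 30° C, EDTA stop; substrate phosphorylation read by microfluidic mobility shift.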

[2] = tested on: NIH/3T3 cells overexpressing FGFR3 V555M-TACC3 fusion protein; assay: NIH/3T3 FGFR3 V555M-TACC3 cellular phospho-ERK assay (in vitro PD assay); type: cell-based; conditions: Mus musculus, NIH3T3; 1-hr incubation, AlphaLISA SureFire Ultra p-ERK1/2; read-out: NIH/3T3 FGFR3 V555M-TACC3 pERK (IC50)
Protocol: NIH/3T3 FGFR3 V555M-TACC3 Cellular Phospho-ERK Assay (In Vitro PD Assay)
(§1) 50 μL of cell suspension (NIH/3T3 cells overexpressing FGFR3 V555M-TACC3 fusion protein) (total 10,000 cells per well in growth medium (DMEM containing 1% Glutamax, 10% FBS and 1% Pen/Strep)) was seeded in a 384-well plate. After overnight incubation at 37° C. and 5% CO2, 5.5 μL of growth medium containing 10× testing compound was added into cell cultures (10 dose points with 4× serial dilution, starting with 10 μM, 0.1% DMSO final). After 1-hr incubation at 37° C. and 5% CO2, the medium was depleted and AlphaLISA SureFire Ultra p-ERK1/2 (Thr202/Tyr204) Assay Kit (from PerkinElmer) was applied for phospho-ERK level detection according to the kit instructions. The RFUs (relative fluorescence units were measured on EnVision microplate reader (ex. 680 nm, em. 615 nm) and concentration-response curve was plotted using Prism to calculate IC50 (M), pIC50 (−log IC50) and HillSlope value.

[3] = target: T2, human FGFR3 V555M enzyme (cytoplasmic domain carrying V555M mutation) (Homo sapiens, UniProt P22607, V555M); assay: FGFR3 V555M mobility shift assay (enzymatic assay, Caliper); type: biochemical; conditions: 30 μM ATP, 45 minutes at 30° C.
T2 construct: cytoplasmic domain carrying V555M mutation, from Carna Biosciences; purchased Carna Biosciences
Summary of the method: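 Cytoplasmic-domain human FGFR3 V555M (0.04 ng/μL) reacted with 30 μM ATP and 1 μM FL-peptide 30 in HEPES pH 7.4, MgCl2, Brij35, DTT, 1% DMSO final. Incubation 45 min at 30 °C, stopped with EDTA. Substrate/product separated and read by mobility shift on a Caliper EZ reader II.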

[4] = tested on: NIH/3T3 cells overexpressing FGFR3 WT-TACC3 fusion protein; assay: NIH/3T3 FGFR3 WT-TACC3 cellular phospho-ERK assay (in vitro PD assay); type: cell-based; conditions: Mus musculus, NIH3T3; 1-hr incubation, AlphaLISA SureFire Ultra p-ERK1/2; read-out: NIH/3T3 FGFR3 WT-TACC3 pERK (IC50)
Protocol: NIH/3T3 FGFR3 WT-TACC3 Cellular Phospho-ERK Assay (In Vitro PD Assay)
as §1, with “50 uL” for “50 μL”, “FGFR3 WT-TACC3” for “FGFR3 V555M-TACC3”

[5] = tested on: NIH/3T3 cells transfected with control vector (MOCK); assay: NIH/3T3 mock cell proliferation assay (CTG, counter assay); type: cell-based; conditions: Mus musculus, NIH3T3; 72-hr incubation, CellTiter Glo; counter assay for general toxicity
Summary of the method: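 Control-vector NIH/3T3 cells, 30,000/well in DMEM with 10% FBS, exposed 72 h at 37 °C to compound (9 points, 3-fold from 30 μM, 0.3% DMSO). CellTiter-Glo luminescence normalized to survival %; IC50, pIC50 and Hill slope from concentration-response fit.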

[6] = target: T3, NIH/3T3 cells overexpressing FGFR3 WT-TACC3 fusion protein (Homo sapiens, UniProt P22607); assay: NIH/3T3 FGFR3 WT-TACC3 cell proliferation assay (CTG); type: cell-based; conditions: 72-hr incubation, CellTiter Glo; read-out: NIH/3T3 FGFR3 WT-TACC3 CTG (IC50)
T3 construct: NIH/3T3 FGFR3 WT-TACC3 CTG (IC50); other: 72-hr incubation, CellTiter Glo; fused on or other part: C-terminal coiled-coil part of TACC3 (part of the key, as a fusion known from patients); Q9Y6A5 (Transforming acidic coiled-coil-containing protein 3)
Protocol: NIH/3T3 FGFR3 WT-TACC3 Cell Proliferation Assay
(§2) In day 1, 90 μL of cell suspension (NIH/3T3 cells overexpressing FGFR3 WT-TACC3 fusion protein) (total 30,000 cells per well in growth medium (DMEM containing 1% Glutamax, 10% FBS and 1% Pen/Strep)) was seeded in a 96-well plate and then incubated overnight at 37° C. and 5% CO2. In day 2, 10 μL of growth medium containing 10-fold stock solution of testing compound was added into cell cultures (9 dose points with 4× serial dilution, starting with 10 μM, 0.1% DMSO final). After 72-hr incubation at 37° C. and 5% CO2, in day 5 a volume of 50 μL CellTiter Glo (CTG) reagent was added into cell-containing 96-well plate and the plate was incubated at room temperature for 10 minutes before RLUs (relative light unit) were measured on a microplate reader with luminescence detection module. The RLU value was normalized to survival % and concentration-response curve was plotted using Prism to calculate IC50 (M), pIC50 (−log IC50) and HillSlope value.

[7] = target: T4, NIH/3T3 cells overexpressing FGFR3 V555M-TACC3 fusion protein (Homo sapiens, UniProt P22607, V555M, cells depend on it); assay: NIH/3T3 FGFR3 V555M-TACC3 cell proliferation assay (CTG); type: cell-based; conditions: 72-hr incubation, CellTiter Glo; read-out: NIH/3T3 FGFR3 V555M-TACC3 CTG (IC50)
T4 construct: NIH/3T3 FGFR3 V555M-TACC3 CTG (IC50); other: 72-hr incubation, CellTiter Glo; fused on or other part: C-terminal coiled-coil part of TACC3 (part of the key, as a fusion known from patients); Q9Y6A5 (Transforming acidic coiled-coil-containing protein 3)
Protocol: NIH/3T3 FGFR3 V555M-TACC3 Cell Proliferation Assay
as §2, with “V555M-TACC3” for “WT-TACC3”

T4 sequence (P22607 whole entry V555M, the tested form may be a part): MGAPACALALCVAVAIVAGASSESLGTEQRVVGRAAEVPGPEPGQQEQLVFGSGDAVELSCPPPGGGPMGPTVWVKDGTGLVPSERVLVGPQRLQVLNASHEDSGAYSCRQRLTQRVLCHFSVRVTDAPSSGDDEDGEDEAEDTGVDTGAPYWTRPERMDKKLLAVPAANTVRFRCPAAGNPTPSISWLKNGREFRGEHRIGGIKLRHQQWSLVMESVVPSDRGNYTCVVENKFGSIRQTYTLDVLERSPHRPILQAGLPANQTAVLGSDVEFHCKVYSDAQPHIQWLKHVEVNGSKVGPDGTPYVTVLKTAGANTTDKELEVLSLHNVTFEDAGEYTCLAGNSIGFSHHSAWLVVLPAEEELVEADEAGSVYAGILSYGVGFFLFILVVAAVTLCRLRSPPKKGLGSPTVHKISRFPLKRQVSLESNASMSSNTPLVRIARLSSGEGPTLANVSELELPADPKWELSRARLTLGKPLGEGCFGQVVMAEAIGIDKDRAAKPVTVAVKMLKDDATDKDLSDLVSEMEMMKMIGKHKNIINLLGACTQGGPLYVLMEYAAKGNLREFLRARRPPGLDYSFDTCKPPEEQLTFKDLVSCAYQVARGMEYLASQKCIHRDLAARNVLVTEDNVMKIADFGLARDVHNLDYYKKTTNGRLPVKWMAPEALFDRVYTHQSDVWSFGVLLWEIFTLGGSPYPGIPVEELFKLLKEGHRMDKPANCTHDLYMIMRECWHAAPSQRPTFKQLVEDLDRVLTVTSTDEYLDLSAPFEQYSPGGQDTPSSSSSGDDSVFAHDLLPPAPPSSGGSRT
T2 sequence (P22607 397-806 V555M limits assumed): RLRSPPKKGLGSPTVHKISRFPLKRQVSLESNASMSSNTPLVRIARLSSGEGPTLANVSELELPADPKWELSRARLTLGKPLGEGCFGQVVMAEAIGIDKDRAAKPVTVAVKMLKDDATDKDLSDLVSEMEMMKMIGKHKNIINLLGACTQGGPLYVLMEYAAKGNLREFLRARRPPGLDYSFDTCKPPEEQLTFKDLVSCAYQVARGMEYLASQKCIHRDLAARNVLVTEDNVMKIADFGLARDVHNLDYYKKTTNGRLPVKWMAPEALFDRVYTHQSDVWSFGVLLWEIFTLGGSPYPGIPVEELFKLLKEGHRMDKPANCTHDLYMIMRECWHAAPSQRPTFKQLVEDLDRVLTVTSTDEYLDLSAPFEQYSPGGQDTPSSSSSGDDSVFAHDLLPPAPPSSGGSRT
T1 sequence (P22607 397-806 limits assumed): as the sequence (P22607 397-806 V555M limits assumed) above, with M159V counted along it
T3 sequence (P22607 whole entry, change not shown, the tested form may be a part): as the sequence (P22607 whole entry V555M, the tested form may be a part) above, with M555V counted along it

| SMILES | IC50 [1] | IC50 [2] | IC50 [3] | IC50 [4] | IC50 [5] | GI50 [6] | GI50 [7] |
| --- | --- | --- | --- | --- | --- | --- | --- |
| COc1cc2[nH]c(-c3c(N[C@@H](C)c4ncccn4)c4nn(C)cc4[nH]c3=O)nc2c(F)c1OC [Compound 55, (S)-6-(4-fluoro-5,6-dimethoxy-1H-benzo[d]imidazol-2-yl)-2-methyl-7-((1-(pyrimidin-2-yl)ethyl)amino)-2H-pyrazolo[4,3-b]pyridin-5 (4H)-one] | 0.957 nM | 5.19 nM | 0.392 nM | 5.5 nM | 2280 nM | 17.4 nM |  |
| CCC(Nc1c(-c2nc3ccc(OCCOC)cc3[nH]2)c(=O)[nH]c2cn(C)nc12)c1ncccn1 (single isomer, unassigned) [Compound 48, (S*)-6-(6-(2-methoxyethoxy)-1H-benzo[d]imidazol-2-yl)-2-methyl-7-((1-(pyrimidin-2-yl)-propyl)amino)-2H-pyrazolo[4,3-b]pyridin-5 (4H)-one] |  |  |  |  | 396 nM |  | 18.5 nM |
